Laboratory results from patent US7671165B2, “Method of forming polycarbonate” (Sabic Innovative Plastics IP B.V., priority 2008, dated 2010).

How the values were obtained:
[1] = Solubility of reaction components and additives in MS; type: physicochemical
[2] = Solubility of catalysts in MS and co-solvents

Question: Which results are given for `O=C(O)CCCCCCCCCCCCC(=O)O` [1,12-Dodecanedicarboxylic acid]?
Answer: Solubility in MS, T (90° C.) ([1]; 0.8 wt %, 0.1 g in 10 ml MS): Dissolved; Stable at T (room) for: ([1]; solution in MS, 0.8 wt %, result in words): Crystalized

Question: For `COC(=O)c1ccccc1OC(=O)Oc1ccccc1C(=O)OC` [BMSC, bismethylsalicylcarbonate], which “Solubility in MS, T (90° C.)” value ([1]; 4.1 wt %, 0.5 g in 10 ml MS) is on record?
Answer: Dissolved

Question: And the “Solubility in MS, T (100° C.)” value ([1]; 17.5 wt %, 2.5 g in 10 ml MS)?
Answer: Dissolved

Question: What about the “Stable at T (room) for:” value ([1]; solution in MS, 4.1 wt %) of the same molecule?
Answer: >24 h

Question: What about the “Stable at T (room) for:” value ([1]; solution in MS, 17.5 wt %) of the same molecule?
Answer: >24 h

Question: For `CC(=O)[O-].[Cs+]` [CS-Acetate], which “Solubility of catalyst, T (room)” value ([2]; 0.79 wt %, 0.1 g, 10.0 ml MS + 1.0 ml MeOH) is on record?
Answer: Dissolved

Question: What about the “Stable at T (room) for:” value ([2]; 0.79 wt %, 10.0 ml MS + 1.0 ml MeOH) of the same molecule?
Answer: >24 h

Question: Which results are given for `O=C(Oc1ccccc1)Oc1ccccc1` [Diphenyl Carbonate]?
Answer: Solubility in MS, T (90° C.) ([1]; 4.1 wt %, 0.5 g in 10 ml MS): Dissolved; Stable at T (room) for: ([1]; solution in MS, 4.1 wt %): >24 h

Question: With `CC(C)(C)c1ccc(OP(Oc2ccc(C(C)(C)C)cc2C(C)(C)C)Oc2ccc(C(C)(C)C)cc2C(C)(C)C)c(C(C)(C)C)c1` [Irgafos 168] as the molecule, how does the “Solubility in MS, T (room)” value ([1]; 0.8 wt %, 0.1 g in 10 ml MS) read?
Answer: Dissolved

Question: And the “Solubility in MS, T (50° C.)” value ([1]; 4.1 wt %, 0.5 g in 10 ml MS)?
Answer: Dissolved

Question: And the “Stable at T (room) for:” value ([1]; solution in MS, 0.8 wt %)?
Answer: 5 h

Question: And the “Stable at T (room) for:” value ([1]; solution in MS, 4.1 wt %)?
Answer: <2 h

Question: What does the source list for `O[C@@H]1CO[C@H]2[C@@H]1OC[C@@H]2O` [Isosorbide, 1,4:3,6-dianhydro-D-sorbitol]?
Answer: Solubility in MS, T (room) ([1]; 0.8 wt %, 0.1 g in 10 ml MS): Dissolved; Solubility in MS, T (room) ([1]; 4.1 wt %, 0.5 g in 10 ml MS): Dissolved; Stable at T (room) for: ([1]; solution in MS, 0.8 wt %): >48 h; Stable at T (room) for: ([1]; solution in MS, 4.1 wt %): >24 h

Question: With `Cc1cc(O)ccc1O` [Methyl hydroquinone] as the molecule, how does the “Solubility in MS, T (room)” value ([1]; 0.8 wt %, 0.1 g in 10 ml MS) read?
Answer: Dissolved

Question: And the “Solubility in MS, T (90° C.)” value ([1]; 7.8 wt %, 1 g in 10 ml MS)?
Answer: Dissolved

Question: Which results are given for `CC(C)(c1ccccc1)c1ccc(O)cc1` [Para-Cumyl Phenol]?
Answer: Stable at T (room) for: [1]: >24 h; Solubility in MS, T (room) ([1]; 4.1 wt %, 0.5 g in 10 ml MS): Dissolved; Solubility in MS, T (room) ([1]; 17.5 wt %, 2.5 g in 10 ml MS): Dissolved; Solubility in MS, T (room) ([1]; 29.7 wt %, 5 g in 10 ml MS): Dissolved

Question: With `Oc1cccc(O)c1` [Resorcinol] as the molecule, how does the “Stable at T (room) for:” value ([1]; solution in MS, 0.8 wt %) read?
Answer: >48 h

Question: What about the “Stable at T (room) for:” value ([1]; solution in MS, 7.8 wt %) of the same molecule?
Answer: >24 h

Question: With `CC(=O)[O-].CCCC[N+](CCCC)(CCCC)CCCC` [Tetra Butyl Ammonium Acetate] as the molecule, how does the “Stable at T (room) for:” value ([2]; 2.47 wt %, 10.0 ml MS, no co-solvent) read?
Answer: >72 h
